Measured values reported in PubChem BioAssay AID1963848 (Molecular Pharmacology Branch, DTP, NCI, 2024).

Tested on: 379773-124-R-J2-PDC spheroid viability
Experiment: Anticancer human tumor 379773-124-R-J2-PDC patient-derived endometrial carcinoma cell line growth inhibition [POLQ]
Details: spheroids with HUVEC and MSC; for IC50: curve of first compound; for viability, T/C: stronger effect = lower value
Procedure: Multicellular complex tumor spheroid response to Polymerase (POL) inhibitors (novobiocin, ART-558, RP6685) in combination with a variety of drugs and investigational agents in selected tumor cell lines
The POL inhibitors (novobiocin, ART-558, and RP6685) were evaluated both individually and in combination with standard of care and investigational anticancer small molecules within a complex spheroid model of solid tumors. . Complex spheroids include a stromal component modeled by human endothelial cells (HUVEC) and fibroblasts modeled by human mesenchymal stem cells (MSCs). The concentration ranges selected for each drug and investigational agent were based upon clinically achievable concentrations if the clinical Cmax of the agent was known.
Compounds. The drugs and investigational agents: novobiocin (NSC847541), ART-558 (NSC835418), RP-6685 (NSC848927), peposertib (NSC802822), ceralasertib (NSC780249), elimusertib (NSC800525), camonsertib (NSC841442), AZD-1390 (NSC803789), olaparib (NSC753686), talazoparib (NSC767125), rucaparib (NSC756644), sotorasib (NSC818433), MRTX-1133 (NSC836407), SN-38 (NSC673596), topotecan (NSC609699), epotoside (NSC141540), doxorubicin (NSC123127), gemcitabine (NSC613327), 5-fluorouracil (NSC19893), paclitaxel (NSC125973), vemurafenib (NSC761431), MSA-2 (NSC828583), SN-011 (NSC837082), adavosertib (NSC754352), prexasertib (NSC758257), carboplatin (NSC241240) and oxaliplatin (NSC266046), were obtained from the National Cancer Institute (NCI) Developmental Therapeutics Program Chemical Repository (21). The FDA-approved anticancer drug set is available from the Developmental Therapeutics Program at https://dtp.cancer.gov/organization/dscb/obtaining/. […] The stock solutions were prepared in dimethyl sulfoxide (DMSO, Sigma-Aldrich, St. Louis, MO, cat. D2650), except for the platinum compounds which were prepared in saline (Quality Biological, Gaithersburg, MD, cat. 114-055-101), at 800-fold the tested concentration and stored at -70 degrees C prior to their use. All drugs and investigational agents were tested over a range starting from a high concentration at or near the clinical Cmax and decreasing in half-log increments. If the clinical Cmax for an agent had not been determined, the highest concentration tested was 10 microM, except for SN-38, which was tested at a high concentration of 1 microM.
Cell Culture. All cells were maintained in an incubator at 37 degrees C and 5% CO2 with 95% humidity. The PDC lines were cultured according to standard operating procedures established by the NCI PDMR (https://pdmr.cancer.gov). Table 3 of the manuscript, lists the cell lines along with the number of the three cell types plated to form the mct-spheroids and media for tumor cell growth. After thawing, all PDC lines, except 997537-175-T-J1-PDC and 415267-285-R-J2-PDC, were cultured in Matrigel-coated flasks prepared with a working solution of 1X Ham's F-12 nutrient mix, without supplementation (Thermo Fisher Scientific, cat. 11765054), 100 U/mL penicillin-streptomycin (Thermo Fisher Scientific, cat. 15140122), and 2.5% Matrigel (Corning Inc., Corning, NY, cat. 354248) for the first three passages. The two PDC lines 997537-175-T-J1-PDC and 415267-285-R-J2-PDC were cultured on uncoated flasks. The 857933-349-R-J2-PDC line was cultured in 6C/Colon 1B media containing advanced DMEM/F-12 (Thermo Fisher Scientific, cat. 12634028), 10 mM HEPES (Thermo Fisher Scientific, cat. 15630080), 1X GlutaMAX supplement (Thermo Fisher Scientific, cat. 35050061), 0.1 mg/mL primocin (InvivoGen, San Diego, CA, cat. ant-pm-2), 10% defined fetal bovine serum, heat inactivated (HyClone Laboratories Inc., Logan, UT, cat. SH30070.03HI), 50% L-WRN conditioned media (ATCC, cat. CRL-3276), 1.25 mM N-Acetyl-L-cysteine (Sigma-Aldrich, cat. A9165), 10 mM nicotinamide (Sigma-Aldrich, cat. N0636), 1X B-27 supplement (Thermo Fisher Scientific, cat. 17504044), 1X N-2 supplement (Thermo Fisher Scientific, cat. […]

[1] = second compound 0.0316 µM, first compound 0.0316 µM
[2] = second compound 0.0316 µM, first compound 0.1 µM
[3] = second compound 0.0316 µM, first compound 0.316 µM
[4] = second compound 0.0316 µM, first compound 1 µM
[5] = second compound 0.0316 µM, first compound 3.16 µM
[6] = second compound 0.0316 µM, first compound 10 µM
[7] = second compound 0.1 µM, first compound 0.0316 µM
[8] = second compound 0.1 µM, first compound 0.1 µM
[9] = second compound 0.1 µM, first compound 0.316 µM
[10] = second compound 0.1 µM, first compound 1 µM
[11] = second compound 0.1 µM, first compound 3.16 µM
[12] = second compound 0.1 µM, first compound 10 µM
[13] = second compound 0.316 µM, first compound 0.0316 µM
[14] = second compound 0.316 µM, first compound 0.1 µM
[15] = second compound 0.316 µM, first compound 0.316 µM
[16] = second compound 0.316 µM, first compound 1 µM
[17] = second compound 0.316 µM, first compound 3.16 µM
[18] = second compound 0.316 µM, first compound 10 µM
[19] = second compound 1 µM, first compound 0.0316 µM
[20] = second compound 1 µM, first compound 0.1 µM
[21] = second compound 1 µM, first compound 0.316 µM
[22] = second compound 1 µM, first compound 1 µM
[23] = second compound 1 µM, first compound 3.16 µM
[24] = second compound 1 µM, first compound 10 µM
[25] = second compound 3.16 µM, first compound 0.0316 µM
[26] = second compound 3.16 µM, first compound 0.1 µM
[27] = second compound 3.16 µM, first compound 0.316 µM
[28] = second compound 3.16 µM, first compound 1 µM
[29] = second compound 3.16 µM, first compound 3.16 µM
[30] = second compound 3.16 µM, first compound 10 µM
[31] = second compound 10 µM, first compound 0.0316 µM
[32] = second compound 10 µM, first compound 0.1 µM
[33] = second compound 10 µM, first compound 0.316 µM
[34] = second compound 10 µM, first compound 1 µM
[35] = second compound 10 µM, first compound 3.16 µM
[36] = second compound 10 µM, first compound 10 µM
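Also: spheroids exposed to drugs for seven days before readout.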
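For viability, T/C in this document: percent viability relative to DMSO vehicle control taken as 100%.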

COc1cccc2c1C(=O)c1c(O)c3c(c(O)c1C2=O)CC(O)(C(=O)CO)CC3OC1CC(N)C(O)C(C)O1 (centres undefined) + Nc1ccc(C#CCN(C(=O)Cc2ncc(C(F)(F)F)cc2C(F)(F)F)c2ccc(F)cc2)nn1 was tested, and the IC50 (second compound 0.0316 µM) was 0.0783 µM, the IC50 (second compound 0.1 µM) was 0.0759 µM and the IC50 (second compound 0.316 µM) was 0.0719 µM. For the same compound, the IC50 (second compound 1 µM) was 0.0655 µM, the IC50 (second compound 3.16 µM) was 0.0734 µM and the IC50 (second compound 10 µM) was 0.0554 µM. For the same compound, the viability, T/C [1] was 84.7%, the viability, T/C [2] was 41.7% and the viability, T/C [3] was 11.1%. For the same compound, the viability, T/C [4] was 12.6%, the viability, T/C [5] was 1.86% and the viability, T/C [6] was 0.23%. For the same compound, the viability, T/C [7] was 87.7%, the viability, T/C [8] was 37.4% and the viability, T/C [9] was 15.2%. The viability, T/C [10] was 11.9%, the viability, T/C [11] was 2.13% and the viability, T/C [12] was 0.18%. The viability, T/C [13] was 90.3%, the viability, T/C [14] was 33.3% and the viability, T/C [15] was 11.8%. For the same compound, the viability, T/C [16] was 10.2%, the viability, T/C [17] was 1.88% and the viability, T/C [18] was 0.18%. It also gave a viability, T/C [19] of 89.8%, a viability, T/C [20] of 26% and a viability, T/C [21] of 9.42%. It also gave a viability, T/C [22] of 10.8%, a viability, T/C [23] of 1.71% and a viability, T/C [24] of 0.23%. The viability, T/C [25] was 85.1%, the viability, T/C [26] was 37.7% and the viability, T/C [27] was 11.3%. The viability, T/C [28] was 10.1%, the viability, T/C [29] was 3.23% and the viability, T/C [30] was 1.06%. The viability, T/C [31] was 71.2%, the viability, T/C [32] was 26.8% and the viability, T/C [33] was 10.9%. The viability, T/C [34] was 9.24%, the viability, T/C [35] was 1.29% and the viability, T/C [36] was 0.25%.

With CC1COCCN1c1cc(C2(O)CC3CCC(C2)O3)c2cnn(-c3ccn[nH]3)c2n1 (centres undefined) + Cc1cccc(N(C)C(=O)C2C(O)CCN2c2nc(C)cc(C(F)(F)F)c2C#N)c1 the IC50 (second compound 0.0316 µM) was 0.0826 µM, the IC50 (second compound 0.1 µM) was 0.0926 µM and the IC50 (second compound 0.316 µM) was 0.0827 µM. For the same compound, the IC50 (second compound 1 µM) was 0.0961 µM, the IC50 (second compound 3.16 µM) was 0.0683 µM and the IC50 (second compound 10 µM) was 0.0681 µM. It also gave a viability, T/C [1] of 75.6%, a viability, T/C [2] of 45.4% and a viability, T/C [3] of 14.1%. It also gave a viability, T/C [4] of 12.7%, a viability, T/C [5] of 7.12% and a viability, T/C [6] of 2.45%. For the same compound, the viability, T/C [7] was 82.8%, the viability, T/C [8] was 48.1% and the viability, T/C [9] was 15.9%. The viability, T/C [10] was 11.5%, the viability, T/C [11] was 7.15% and the viability, T/C [12] was 2.96%. The viability, T/C [13] was 84.9%, the viability, T/C [14] was 43.2% and the viability, T/C [15] was 11.8%. For the same compound, the viability, T/C [16] was 9.19%, the viability, T/C [17] was 6.89% and the viability, T/C [18] was 2.54%. It also gave a viability, T/C [19] of 80.8%, a viability, T/C [20] of 49% and a viability, T/C [21] of 12.2%. The viability, T/C [22] was 10.9%, the viability, T/C [23] was 7% and the viability, T/C [24] was 2.13%. It also gave a viability, T/C [25] of 70.6%, a viability, T/C [26] of 40.2% and a viability, T/C [27] of 15.1%. For the same compound, the viability, T/C [28] was 9.34%, the viability, T/C [29] was 7.31% and the viability, T/C [30] was 2.13%. For the same compound, the viability, T/C [31] was 68.3%, the viability, T/C [32] was 41.5% and the viability, T/C [33] was 15.1%. It also gave a viability, T/C [34] of 10.8%, a viability, T/C [35] of 7.1% and a viability, T/C [36] of 1.64%.
